Experimental data: patent US4461761A, “Oligomers of compounds of the muramyl-peptide type and medicaments containing them” (priority 1978, dated 1984)

Tests used:
ovalbumin [1] = experiment: Adjuvant character in emulsion: delayed hypersensitivity cutaneous test; format: in vivo, Hartley guinea pigs; details: emulsion with 1 mg ovalbumin, intradermal; product 50 μg in FIA; challenge day 18, read 48 hours later
Procedure: (§1) The tests were carried out on batches of 6 male Hartley guinea pigs of 350 g. The administration was done by intradermal injection into the plantar pad of each of the rear paws. Ovalbumin (constituting the antigen) in the amount of 1 mg is prepared in 0.1 ml of an emulsion of saline isotonic solution, in an oily phase constituted either by the Freund incomplete adjuvant (FIA) or by the complete adjuvant (FCA) formed by the FIA to which is added 0.1 mg of whole Mycobacterium smegmatis cells. The compound according to the invention was administered in the amount of 0.05 mg added in the emulsion containing the FIA.
Eighteen days after this immunization, possible delayed hypersensitivity reactions to the antigen were sought by injecting by the intradermal route 0.01 mg of ovalbumin in the side of the animals, and 48 hours later, the reaction of the point of injection was observed. The diameter in millimeters of the reaction thus-caused was measured.

Klebsiella pneumoniae = experiment: Anti-Klebsiella pneumoniae activity in the adult mouse; format: in vivo; details: adult mouse; for % Protection / Number of mice D + 3 (survivors) / Number of mice D + 5 (survivors) / Number of mice D + 10 (survivors): treatment -24 h, i.v., 100 μg
Procedure: An experimental procedure was studied by CHEDID L. et coll. in "Proc. Natl. Acad. Sci. USA," 1977, 74: 2089, which permits the stimulating effect or not to be observed of substances studied with regard to immune defenses according as they protect or not the mice to which they are injected, the mice being inoculated by a dose of Klebsiella pneumoniae which results in the death of almost all of the controls.
The testing procedure is described in the article CHEDID L. et coll., Proc. Natl. Acad. Sci. USA, 74:2089.
It was shown that a dose of about 10^4 Klebsiella pneumoniae, injected by the intramuscular route in mice, results in the gradual death of a considerable part, if not all, of the animals in the week following the inoculation. After 8 days, the survival of the animals was definitely achieved.
The survival of groups of inoculated mice under the above conditions and treated by means of the products according to the invention was followed.
For these tests, hybrid mice (C57B1/6×AKR) FI bred at the PASTEUR INSTITUTE, from strains derived from the CNRS breeding station at ORLEANS, were used.
The infection by Klebsiella pneumoniae, a strain of the capsular 2, biotype d type, was done from a culture of 16 hours in a medium for pneumococci (No. 53515, PASTEUR INSTITUTE).
Various treatment conditions and tests have been studied. Thus, the treatment was carried out either 24 hours before the test, or 1 hour after the latter. The influence of the infecting dose and the mode of administration has also been studied. In particular, the protective properties of the products have been determined in the case of an injection of Klebsiella pneumoniae by the intravenous route, which corresponds to a severe infection.
In the majority of cases, the tests have been carried out on mice aged from 5 to 6 weeks. In one part of the tests, on the other hand, mice 7 days old were used, since the immune responses, in very young subjects are substantially different, and, on the whole, much more difficult to stimulate than those that are observed in adult subjects.
The products are administered in apyrogenic physiological solution in the proportion of 0.2 ml for intravenous administration to adult mice and 0.05 ml for sub-cutaneous injection to mice 7 days old. The controls received the solution alone.
The percentage protection indicated corresponds to the difference in percentages of survivors of the treated group with respect to the control group.

[2] = test system: bovine serum albumin (BSA); experiment: Adjuvant character in the aqueous phase (anti-BSA antibody titer, passive hemagglutination); format: in vivo, Swiss mice; details: 100 μg adjuvant s.c. with 0.5 mg BSA in isotonic saline; booster day 30; six days after booster; maximum serum dilution agglutinating
Procedure: Groups of 8 Swiss mice aged two months received, by sub-cutaneous injection (SC), 0.5 mg of antigen constituted by bovine serum albumin (BSA) with 0.1 mg or without the tested substance in an isotonic saline solution. This high dose of antigen, because it is situated at the limit of the paralyzing dose with respect to the immunitary response, results, for this reason, in a weak or zero response to the antigen only in the controls: It constitutes therefore a severe criterion to establish the activity of an adjuvant substance. Thirty days later, the mice received, by the same administrative route, a booster containing 0.1 mg of the same antigen.
The antibody level was determined, six days after the booster, by passive hemagglutination using sheep's red blood corpuscles treated with formalin and covered with the antigen studied according to the method described by A. A. HIRATA and M. W. BRANDISS (J. Immunol., 100, 641-648, 1968).
The antibody titer, represented by the maximum serum dilution agglutinating a given amount of sheep corpuscles, reaches a maximum at the 36th day. The results obtained for various products according to the invention are shown in Table I. By way of comparison, the results obtained with MDP are indicated, on the one hand, and for PAP-MDP, on the other hand.

ovalbumin [3] = experiment: Adjuvant character in emulsion: serum antibodies specific for ovalbumin; format: in vivo, Hartley guinea pigs; details: emulsion with 1 mg ovalbumin, intradermal; product 50 μg in FIA; day 21; μg nitrogen precipitatable by antigen per ml serum
Procedure: as §1
Twenty-one days after the injection, the animals were bled. On the collected serum, the content of specific antibodies of the ovalbumin was measured by precipitation of the antibody-antigen complex in the equivalence zone. The amount of protein nitrogen contained in the precipitate was estimated by the Folin method. These values express the amount, in micrograms, of nitrogen precipitatable by the antigen, per milliliter of the serum.

CC(=O)N[C@H]1[C@H](Oc2ccc(N)cc2)O[C@H](CO)[C@@H](O)[C@@H]1O[C@H](C)C(=O)N[C@@H](C)C(=O)N[C@H](CCC(=O)O)C(N)=O [PAP-MDP, β-D-p.aminophenyl glycoside of N-acetyl-muramyl-L-alanyl-D-isoglutamine, reference compound]
Cutaneous test diameter in mm (ovalbumin [1]): 14.4 mm
anti-infectious activity with respect to Klebsiella pneumoniae (in words) (Klebsiella pneumoniae; summary of Table 3): practically not
% Protection (Klebsiella pneumoniae; infection i.m. 1.5 × 10^4): 19%
Number of mice D + 3 (survivors) (Klebsiella pneumoniae; infection i.m. 1.5 × 10^4): 28
Number of mice D + 5 (survivors) (Klebsiella pneumoniae; infection i.m. 1.5 × 10^4): 17
Number of mice D + 10 (survivors) (Klebsiella pneumoniae; infection i.m. 1.5 × 10^4): 11
% Protection (Klebsiella pneumoniae; infection i.v. 1.5 × 10^3): 0%
Number of mice D + 3 (survivors) (Klebsiella pneumoniae; infection i.v. 1.5 × 10^3): 6
Number of mice D + 5 (survivors) (Klebsiella pneumoniae; infection i.v. 1.5 × 10^3): 2
Number of mice D + 10 (survivors) (Klebsiella pneumoniae; infection i.v. 1.5 × 10^3): 2
Antibody titer [2]: 11
Serum antibodies (ovalbumin [3]): 3480 µg/mL
